From publication PMC10133546, “Simultaneous determination of multiple components in rat plasma by UHPLC-sMRM for pharmacokinetic studies after oral administration of Qingjin Yiqi Granules” (Frontiers in Pharmacology, 2023)

Assays:
[1] = Pharmacokinetic study in rat plasma after oral administration of QJYQ (UHPLC-sMRM); type: in vivo, Sprague-Dawley rats; settings: rat, in vivo, po, 3.15 g/kg
[2] = Stability of the working solution (4°C for 1 month); type: physicochemical
Caco-2 cell = system: Caco-2 cell; set-up: method as in Cai et al., 2016; settings: compared with baicalin; ref Cai et al., 2016; cited from earlier work
[3] = set-up: method as in Wang et al., 2008; Feng et al., 2017; settings: alkaline and light and heat conditions; ref Wang et al., 2008; Feng et al., 2017; cited from earlier work
[4] = Stability of analytes in rat plasma (auto-sampler, freeze-thaw, room temperature, long-term); settings: for Autosampler for 24 h Accuracy (%): autosampler 24 h; for Room temperature for 24 h Accuracy (%): room temperature 24 h; for Freeze thaw cycles Accuracy (%): three freeze-thaw cycles; for −80°C for 1month Accuracy (%): −80°C 1 month

AUC(0-t) [1]: 73080.32 ± 34091.07 ng·h/mL | AUC(0-∞) [1]: 73104.07 ± 34093.59 ng·h/mL | Cmax [1]: 5052.10 ± 3277.54 ng/mL | MRT [1]: greater than 8 h | MRT (0-∞) [1]: 8.40 ± 0.83 h | MRT(0-t) [1]: 8.39 ± 0.83 h | T1/2 [1]: 2.67 ± 0.24 h | Tmax [1]: 5.89 ± 3.26 h | Working solution Accuracy (%) ([2]; 62.5 ng/mL): 91.0% | Working solution Accuracy (%) ([2]; 500 ng/mL): 113.0% | Working solution Accuracy (%) ([2]; 1000 ng/mL): 105.0% | Working solution Accuracy (%) ([2]; 5000 ng/mL): 108.0% | Autosampler for 24 h Accuracy (%) ([4]; 62.5 ng/mL): 89.7% | Room temperature for 24 h Accuracy (%) ([4]; 62.5 ng/mL): 83.2% | Freeze thaw cycles Accuracy (%) ([4]; 62.5 ng/mL): 84.2% | −80°C for 1month Accuracy (%) ([4]; 62.5 ng/mL): 83.7% | Autosampler for 24 h Accuracy (%) ([4]; 500 ng/mL): 105.0% | Room temperature for 24 h Accuracy (%) ([4]; 500 ng/mL): 93.4% | −80°C for 1month Accuracy (%) ([4]; 500 ng/mL): 113.0% | Autosampler for 24 h Accuracy (%) ([4]; 1000 ng/mL): 98.7% | Room temperature for 24 h Accuracy (%) ([4]; 1000 ng/mL): 85.6% | Freeze thaw cycles Accuracy (%) ([4]; 1000 ng/mL): 95.1% | −80°C for 1month Accuracy (%) ([4]; 1000 ng/mL): 98.0% | Autosampler for 24 h Accuracy (%) ([4]; 5000 ng/mL): 97.5% | Room temperature for 24 h Accuracy (%) ([4]; 5000 ng/mL): 111.0% | Freeze thaw cycles Accuracy (%) ([4]; 5000 ng/mL): 90.9% | −80°C for 1month Accuracy (%) ([4]; 5000 ng/mL): 89.1%
SMILES: COc1c(O[C@@H]2O[C@H](C(=O)O)[C@@H](O)[C@H](O)[C@H]2O)cc(O)c2c(=O)cc(-c3ccccc3)oc12 [wogonoside]
Caco-2 cell membrane permeability (Caco-2 cell): greater than baicalin | stability [3]: not stable
